The text below walks through data of patent US20180120298A1, “HEPATOCYTE CULTURE DEVICE CAPABLE OF ENHANCING ACCUMULATION AND EXCRETION OF HEPATIC METABOLITE IN AND INTO BILE CANALICULUS-LIKE STRUCTURE, AND METHOD FOR EVALUATING CANDIDATE COMPOUND SENSITIVE TO EXCRETION INTO BILE OR BLOOD AND HEPATIC METABOLITE OF SAID CANDIDATE COMPOUND USING SAID HEPATOCYTE …” (National Agriculture and Food Reserach Organization, priority 2015, published 2018).

The subject of data set [1] is HepG2 cells co-cultured with TFK-1 cells. As to the kind of experiment: Fluorescein excretion into chamber and dish, activated HepG2 cells in hydrogel membrane chamber co-cultured with TFK-1 cells. The format is in vitro ADME, human. Here is the method:
(§1) HepG2 cells (purchased from RIKEN BioResource Center, RCB1648, Lot.004) suspended in 0.5 mL DMEM culture medium containing 10% FBS, 20 mM HEPES, 100 units/mL penicillin, and 100 μg/mL streptomycin were seeded at 5×10^4 cells/cm^2 and cultured for 2 days in a hydrogel membrane chamber (ad-MED Vitrigel (registered trademark) manufactured by KANTO KAGAKU) to which a detachable silicone-coated PET film is attached. Thereafter, the film on a bottom surface of the hydrogel membrane chamber was detached, the chamber was mounted in a well of a 12-well plate, and culture was carried out for 1 day in a state where the bottom surface is in contact with air (refer to FIG. 2). The 0.5 mL culture medium was exchanged daily after seeding.
(§2) [1] After removing the culture medium of the hydrogel membrane chamber containing the activated HepG2 cells, 0.5 mL of the culture medium containing 250 vg/mL Fluorescein diacetate (FD) was added, and then culture was carried out at 37° C. for 1 hour in a CO2 incubator (refer to FIG. 4 and Observation A of FIG. 5).
(§3) [2] After removing the culture medium containing the FD remaining in the chamber, washing was performed twice with 0.5 mL of Hank's Balanced Salt Solution (Hank's balanced salt solution: HBSS), 0.5 mL of the culture medium was added to the chamber, and then culture was carried out at 37° C. for 1 hour in a CO2 incubator (refer to Observation B of FIG. 5).
[3] Subsequently, after removing the culture medium remaining in the chamber, 0.5 mL of the culture medium was newly added to the chamber. Furthermore, TFK-1 cells (purchased from RIKEN BioResource Center, RCB2537, Lot.002) suspended in 2.0 mL of RPMI 1640 culture medium containing 10% FBS, 100 units/mL penicillin, and 100 μg/mL streptomycin were seeded at 7×10^4 cells/cm^2 in a dish having a diameter of 35 mm and cultured for 3 days, and therefore, monolayered cells were prepared in advance. After removing the culture medium in the dish, 0.5 mL of the culture medium for HepG2 cells was added thereto. The chamber was mounted on the monolayer of TFK-1 cells in the dish having a diameter of 35 mm, and then co-culture was carried out at 37° C. for 1 hour in a CO2 incubator (refer to Observation C of FIG. 5).
[4] The fluorescence intensities of Fluorescein in the culture medium in the chamber and in the dish were measured. In Table 1, FD (−) is a value measured as a background value using a chamber having HepG2 cells cultured without adding FD.
(§4) [1] HepG2 cells were seeded to prepare 12 sets of activated hydrogel membrane chambers. For 6 sets, FD was added to the culture medium and cultured by the same procedure as in [1] to [2] of Example 1.
(§5) [2] Subsequently, after removing the culture medium remaining in the chamber, 0.5 mL of the culture medium was newly added to the chamber. Subsequently, each of three sets was cultured at 37° C. for 1 hour in a CO2 incubator under the following four conditions (refer to FIG. 6).
(§6) i) A set in which HepG2 cells were co-cultured with TFK-1 cells (FD added) ii) A set in which HepG2 cells were co-cultured with TFK-1 cells (FD not added) iii) A set in which HepG2 cells were homo-cultured in a dish containing only a culture medium (FD added) iv) A set in which HepG2 cells were homo-cultured in a dish containing only a culture medium (FD not added)
(§7) [3] The culture medium in the chamber and the dish of i) to iv) was recovered and the fluorescence intensities were measured.
[2] […]

The test system of data set [2] is HepG2 cells. As for the experimental part: as §1, §2, §3, §4, §5, §6, §7
[2] With respect to the 36 sets of hydrogel membrane chambers in which the cells were seeded and cultured in [1], the culture medium remaining in the chamber was removed, and then 0.5 mL of the culture medium was newly added to the chamber. Subsequently, each of three sets was cultured at 37° C. in a CO2 incubator with culture time of 3 minutes, 30 minutes, and 60 minutes (for each 12 sets) under the following four conditions i) to iv) the same as those of Example 2.
[3] The culture media in the dishes and in the chambers of i) to iv) were recovered 3 minutes, 30 minutes, and 60 minutes after the start of culture, and the fluorescence intensities were measured. Measurements were made three times respectively, and average values are shown in Table 3 (culture time 3 minutes), Table 4 (culture time 30 minutes), and Table 5 (culture time 60 minutes). In FIG. 7, the term “Co-culture” means the set in which HepG2 cells were co-cultured with TFK-1 cells, and the term “Homo-culture” means the set in which HepG2 cells were homo-cultured in the dish containing the culture medium.
[2] With respect to the 48 sets of hydrogel membrane chambers in which the cells were seeded and cultured in [1], the culture medium remaining in the chamber was removed, and then 0.5 mL of the culture medium was newly added to the chamber. Subsequently, each of three sets was cultured at 37° C. in a CO2 incubator with culture time of 3 minutes, 30 minutes, 60 minutes, and 180 minutes (for each 12 sets) under the following four conditions i) to iv) the same as those of Example 2.

Data set [3] deals with HepG2 cells co-cultured with Normal Human Dermal Fibroblasts (NHDFs). Briefly: Fluorescein excretion into chamber and dish, activated HepG2 cells co-cultured with NHDFs. The format is in vitro ADME. As to conditions: Example 6; culture time 60 minutes. Here is the method:
[1] First, HepG2 cells were seeded to prepare 18 sets of activated hydrogel membrane chambers.

The test system of data set [4] is HepG2 cells co-cultured with TFK-1 cells. As to the kind of experiment: Fluorescence microscope observation of Fluorescein in cytoplasm and bile canaliculus-like structure, co-culture with TFK-1 cells. In kind it is in vitro ADME, human. Here is the method: [3] […] After removing the culture medium in the dish, 0.5 mL of the culture medium for HepG2 cells was added thereto.
(§8) [1] First, HepG2 cells were seeded to prepare 2 sets of activated hydrogel membrane chambers.

Data set [5] relates to HepG2 cells. Briefly: Fluorescence microscope observation of Fluorescein in cytoplasm and bile canaliculus-like structure, homo-culture. In kind it is in vitro ADME. Here is the method: as §8
The test system of data set [6] is HepG2 cells co-cultured with TFK-1 cells. Briefly: Fluorescein excretion into chamber and dish, activated HepG2 cells in hydrogel membrane chamber co-cultured with TFK-1 cells. The following applies: Example 4. In kind it is in vitro ADME, human.

Molecules are shown by their SMILES. Read-outs that look alike come from different tables or passages of the source.

With `O=C1OC2(c3ccc(O)cc3Oc3cc(O)ccc32)c2ccccc21` [Fluorescein], the “amount of Fluorescein excreted into the dish larger in co-culture with TFK-1 cells than in homo-culture (rate of excretion to the lower side)” value in data set [1] (Example 2, 1 hour) came to 4%. The “increase of the total amount of excreted Fluorescein, co-culture with TFK-1 cells vs homo-culture” value in data set [1] (Example 2, 1 hour) is “about 26%”. Besides, the “total of the fluorescence intensities of Fluorescein excreted into the chamber and into the dish” value in data set [1] (Example 2, co-cultured with TFK-1 cells, 1 hour) came to 770; in the data set on HepG2 cells [2] (human, 1 h, 250 vg/mL), 609. For the same compound, the “rate of the fluorescence intensities of Fluorescein excreted into the dish (lower side) over time” value is “increased” in data set [1] (Example 3, co-culture with TFK-1 cells); “decreased over time” with HepG2 cells [2]; “increased” in data set [6] (co-culture with TFK-1 cells). In addition, the “total of the fluorescence intensities of excreted Fluorescein, co-culture with TFK-1 cells compared with homo-culture” value is listed as “larger” in data set [1] (Example 3, culture time 3, 30 and 60 minutes); “larger” in data set [6] (at any time of the culture time (3 to 180 minutes)). The “culture time beyond which total excreted Fluorescein fluorescence becomes almost a plateau state” value was “exceeds 30 minutes” in the data set on HepG2 cells [2] (human, 250 vg/mL) and “exceeds 60 minutes” in data set [6] (co-culture with TFK-1 cells). Moreover, the “amount of Fluorescein excreted into the dish smaller in co-culture with NHDFs than in co-culture with TFK-1 cells” value in data set [3] amounted to 54%. In data set [3], the “total of the fluorescence intensities of Fluorescein excreted into chamber and dish, co-culture with NHDFs compared with homo-culture” value was “almost the same”. Moreover, the “Fluorescein accumulated in the bile canaliculus-like structure after co-culturing with TFK-1 cells” value in data set [4] (Example 1, Observations B and C of FIG. 5, co-culture 1 hour) is recorded as “decreased”. The “time within which reduction in the amount of Fluorescein accumulated in the bile canaliculus-like structure was confirmed” value in data set [4] (Example 5, co-culture with TFK-1 cells) is at most 1 h. Besides, the “reduction in the green fluorescence of Fluorescein” value in data set [4] (Example 5, co-culture, after 1 hour of excretion) is “significantly noticeable”; in the data set with HepG2 cells [5] (Example 5, after 1 hour of excretion), “not noticeable”; in the data set with HepG2 cells [5] (Example 5, after 3 hours of excretion) it was “significantly noticeable”. In addition, the “green fluorescence of Fluorescein” value is listed as “not possible to confirm” in data set [4] (Example 5, co-culture, after 3 hours of excretion); “not possible to confirm” in data set [4] (Example 5, co-culture, after 23 hours of excretion); “fluorescence in the bile canaliculus-like structure remained” in the data set with HepG2 cells [5] (Example 5, after 23 hours of excretion). The “time needed to reduce the amount of Fluorescein accumulated in the bile canaliculus-like structure” value in the data set with HepG2 cells [5] (Example 5) is at least 1 days. Besides, the “amount of Fluorescein excreted into the dish (lower side) larger in co-culture with TFK-1 cells than in homo-culture (rate of excretion to the lower side)” value in data set [6] (culture time 180 minutes) is 36%.

For `CC(=O)Oc1ccc2c(c1)Oc1cc(OC(C)=O)ccc1C21OC(=O)c2ccccc21` [FD, Fluorescein diacetate], in the data set with HepG2 cells [2] (human, 3 min, 250 vg/mL), the “Average value of set, in chamber” value is on record as 507. In the data set on HepG2 cells [2] (human, 30 min, 250 vg/mL), the “FD(+)-FD(−) in chamber as percentage of total excreted into chamber and dish” value (“FD(+)-FD(−) in chamber as percentage” below) is listed as “(50%)”; the “FD(+)-FD(−) in dish as percentage of total excreted into chamber and dish” value (“FD(+)-FD(−) in dish as percentage” below) was “(50%)”. In the data set on HepG2 cells [2] (human, 1 h, 250 vg/mL), the “Average value of set, in chamber” value is recorded as 1145; the “Average value of set, in dish” value is on record as 645; the “FD(+)-FD(−) in chamber as percentage” value is reported as “(90%)”; the “FD(+)-FD(−) in dish as percentage” value is given as “(10%)”. Also, in the data set with HepG2 cells [2] (human, 1 h, 250 vg/mL), the “FD(+)-FD(−), in chamber” value is recorded as 549 and the “FD(+)-FD(−), in dish” value was found to be 60. In the data set on HepG2 cells [2] (human, 180 min, 250 vg/mL), the “Average value of set, in chamber” value worked out at 579; the “Average value of set, in dish” value was 515; the “FD(+)-FD(−) in chamber as percentage” value is recorded as “(71%)”; the “FD(+)-FD(−) in dish as percentage” value is reported as “(29%)”. In addition, in the data set with HepG2 cells [2] (human, 180 min, 250 vg/mL), the “FD(+)-FD(−), in chamber” value amounted to 88 and the “FD(+)-FD(−), in dish” value was 36.
